Assays:
[1] = target: T1, ATP-dependent translocase ABCB1 (Homo sapiens, UniProt P08183); assay: TP_TRANSPORTER: cell accumulation in KB-3-1 and KB-V1 cells; assay type: functional, cell-based; details: kb-3-1;kb-v1
[2] = target: T2, ATP-dependent translocase ABCB1 (Mus musculus, UniProt P21447); assay: TP_TRANSPORTER: transepithelial transport (basal to apical) in mdr1a-expressing LLC-PK1 cell; assay type: functional, cell-based; details: pig
[3] = target: T1, ATP-dependent translocase ABCB1; assay: TP_TRANSPORTER: transepithelial transport (basal to apical) in MDR1-expressing LLC-PK1 cells; assay type: functional, cell-based; details: pig
[4] = target: T2, ATP-dependent translocase ABCB1; assay: TP_TRANSPORTER: no change in plasma concentration in mdr1a(-/-) mouse; assay type: functional, organism-based; details: in vivo
[5] = target: T2, ATP-dependent translocase ABCB1; assay: TP_TRANSPORTER: no change in brain concentration in mdr1a(-/-) mouse; assay type: functional, organism-based; details: in vivo
[6] = target: T2, ATP-dependent translocase ABCB1; assay: TP_TRANSPORTER: increase in plasma concentration in mdr1a(-/-) mouse; assay type: functional, organism-based; details: in vivo
[7] = target: T2, ATP-dependent translocase ABCB1; assay: TP_TRANSPORTER: increase in brain concentration in mdr1a(-/-) mouse; assay type: functional, organism-based; details: in vivo

T1 sequence (P08183 whole entry): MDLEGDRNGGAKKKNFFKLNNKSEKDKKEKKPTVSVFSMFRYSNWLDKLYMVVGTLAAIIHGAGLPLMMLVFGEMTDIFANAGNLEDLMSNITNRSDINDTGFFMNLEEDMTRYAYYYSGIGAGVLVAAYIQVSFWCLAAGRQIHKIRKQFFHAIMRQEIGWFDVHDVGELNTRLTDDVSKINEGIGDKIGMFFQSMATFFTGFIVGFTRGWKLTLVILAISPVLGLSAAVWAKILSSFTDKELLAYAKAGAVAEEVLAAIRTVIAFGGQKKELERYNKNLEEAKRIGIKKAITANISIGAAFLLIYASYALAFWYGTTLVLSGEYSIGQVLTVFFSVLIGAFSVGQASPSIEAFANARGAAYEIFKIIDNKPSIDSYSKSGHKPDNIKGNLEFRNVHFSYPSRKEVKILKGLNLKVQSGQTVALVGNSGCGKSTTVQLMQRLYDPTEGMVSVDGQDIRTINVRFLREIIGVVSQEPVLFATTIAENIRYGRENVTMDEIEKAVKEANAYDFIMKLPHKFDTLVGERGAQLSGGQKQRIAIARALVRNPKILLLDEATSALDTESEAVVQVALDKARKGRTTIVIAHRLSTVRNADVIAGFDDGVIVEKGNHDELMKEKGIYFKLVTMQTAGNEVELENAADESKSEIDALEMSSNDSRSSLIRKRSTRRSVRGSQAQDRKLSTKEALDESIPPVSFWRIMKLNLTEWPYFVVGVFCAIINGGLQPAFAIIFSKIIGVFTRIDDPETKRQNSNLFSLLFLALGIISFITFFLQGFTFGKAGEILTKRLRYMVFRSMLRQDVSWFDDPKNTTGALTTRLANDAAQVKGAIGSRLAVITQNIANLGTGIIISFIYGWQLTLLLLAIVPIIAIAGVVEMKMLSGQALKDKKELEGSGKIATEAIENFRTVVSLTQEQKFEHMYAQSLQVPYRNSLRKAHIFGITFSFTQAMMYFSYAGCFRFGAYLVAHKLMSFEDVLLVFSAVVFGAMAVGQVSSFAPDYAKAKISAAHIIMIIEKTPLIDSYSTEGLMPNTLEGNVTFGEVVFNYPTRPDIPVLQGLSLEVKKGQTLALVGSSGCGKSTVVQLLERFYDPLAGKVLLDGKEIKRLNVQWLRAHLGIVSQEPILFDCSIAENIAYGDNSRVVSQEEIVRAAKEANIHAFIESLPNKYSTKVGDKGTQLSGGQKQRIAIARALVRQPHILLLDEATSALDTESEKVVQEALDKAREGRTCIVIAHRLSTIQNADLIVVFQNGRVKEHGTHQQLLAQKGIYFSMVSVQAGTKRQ
T2 sequence (P21447 whole entry): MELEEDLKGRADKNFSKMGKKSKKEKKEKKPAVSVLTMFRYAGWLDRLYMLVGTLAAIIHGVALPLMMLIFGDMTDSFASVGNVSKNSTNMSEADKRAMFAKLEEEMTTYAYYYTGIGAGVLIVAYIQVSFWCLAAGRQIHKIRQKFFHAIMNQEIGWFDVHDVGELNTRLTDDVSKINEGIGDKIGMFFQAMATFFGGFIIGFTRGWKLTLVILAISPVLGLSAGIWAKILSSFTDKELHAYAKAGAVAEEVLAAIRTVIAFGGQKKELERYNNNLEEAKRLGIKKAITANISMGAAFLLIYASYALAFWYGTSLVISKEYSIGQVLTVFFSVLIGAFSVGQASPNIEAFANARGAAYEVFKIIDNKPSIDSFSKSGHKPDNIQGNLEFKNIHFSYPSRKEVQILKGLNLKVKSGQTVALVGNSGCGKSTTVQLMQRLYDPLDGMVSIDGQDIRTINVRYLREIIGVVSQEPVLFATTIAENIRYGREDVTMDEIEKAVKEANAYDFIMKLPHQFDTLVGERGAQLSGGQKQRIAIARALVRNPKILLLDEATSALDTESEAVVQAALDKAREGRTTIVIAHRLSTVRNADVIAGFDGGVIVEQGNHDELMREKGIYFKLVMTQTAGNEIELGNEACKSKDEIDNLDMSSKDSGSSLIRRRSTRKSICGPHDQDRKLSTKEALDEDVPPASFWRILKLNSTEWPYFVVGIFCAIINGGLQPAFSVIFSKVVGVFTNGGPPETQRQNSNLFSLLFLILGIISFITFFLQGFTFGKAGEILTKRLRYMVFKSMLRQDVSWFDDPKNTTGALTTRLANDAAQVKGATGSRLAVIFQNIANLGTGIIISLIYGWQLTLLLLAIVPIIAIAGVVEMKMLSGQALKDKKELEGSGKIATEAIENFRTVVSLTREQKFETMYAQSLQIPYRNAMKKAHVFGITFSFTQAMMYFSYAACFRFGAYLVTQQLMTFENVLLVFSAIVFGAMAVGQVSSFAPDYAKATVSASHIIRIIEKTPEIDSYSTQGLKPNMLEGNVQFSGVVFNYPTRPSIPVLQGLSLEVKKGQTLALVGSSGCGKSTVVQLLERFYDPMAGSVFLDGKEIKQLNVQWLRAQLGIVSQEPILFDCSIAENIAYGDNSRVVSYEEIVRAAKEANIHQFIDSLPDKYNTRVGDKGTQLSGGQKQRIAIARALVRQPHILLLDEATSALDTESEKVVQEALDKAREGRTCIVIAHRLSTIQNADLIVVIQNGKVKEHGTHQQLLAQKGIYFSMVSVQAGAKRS

Row | Structure (SMILES) | Activity [1] | Activity [2] | Activity [3] | Activity [4] | Activity [5] | Activity [6] | Activity [7]
1 | CC[C@H](C)C[C@H](C)CCCCCCCCC(=O)N[C@H]1C[C@@H](O)[C@@H](NCCN)NC(=O)[C@@H]2[C@@H](O)CCN2C(=O)[C@H]([C@H](O)CCN)NC(=O)[C@H]([C@H](O)[C@@H](O)c2ccc(O)cc2)NC(=O)[C@@H]2C[C@@H](O)CN2C(=O)[C@H]([C@@H](C)O)NC1=O [CASPOFUNGIN] | is not a substrate [-] | is not a substrate [-] | is not a substrate [-] | – | – | – | –
2 | CN1C(=O)CN=C(c2ccccc2)c2cc(Cl)ccc21 [DIAZEPAM] | is not a substrate [-] | is not a substrate [-] | is not a substrate [-] | is not a substrate [-] | is not a substrate [-] | – | –
3 | CC(C)(C)NC(=O)[C@@H]1CN(Cc2cc3ccccc3o2)CCN1[C@@H](Cc1ccccc1)[C@@H](O)C[C@@H](Cc1ccccc1)C(=O)NC1c2ccccc2C[C@H]1O (some centres undefined) | substrate [+] | substrate [+] | – | – | – | substrate [+] | substrate [+]
4 | CC(C)(C)NC(=O)[C@@H]1CN(Cc2cccnc2)CCN1C[C@@H](O)C[C@@H](Cc1ccccc1)C(=O)N[C@H]1c2ccccc2C[C@H]1O.O | substrate [+] | substrate [+] | – | – | – | substrate [+] | substrate [+]
5 | CC[C@]1(O)C[C@@H]2CN(CCc3c([nH]c4ccccc34)[C@@](C(=O)OC)(c3cc4c(cc3OC)N(C)[C@H]3[C@@](O)(C(=O)OC)[C@H](OC(C)=O)[C@]5(CC)C=CCN6CC[C@]43[C@@H]65)C2)C1 [VINBLASTINE] | substrate [+] | – | – | – | – | substrate [+] | substrate [+]
6 | Cc1cccc(NC(=O)NC2N=C(c3ccccc3)c3ccccc3N(C)C2=O)c1 (centres undefined) | substrate [+] | substrate [+] | substrate [+] | – | – | substrate [+] | substrate [+]
7 | Cc1nc(N)ccc1CNC(=O)Cn1c(C)cnc(NCCc2ccccc2)c1=O.Cl.Cl.O | substrate [+] | substrate [+] | substrate [+] | – | – | – | –
8 | C[C@@H](O)[C@H]1C(=O)N2C(C(=O)[O-])=C(S[C@@H]3CN[C@H](C(=O)Nc4cccc(C(=O)O)c4)C3)[C@H](C)[C@H]12.O.[Na+] | is not a substrate [-] | is not a substrate [-] | is not a substrate [-] | – | – | – | –
9 | N#Cc1ccc(Cn2cncc2CN2CCN(c3cccc(Cl)c3)C(=O)C2)cc1 [L-778123 FREE BASE] | substrate [+] | substrate [+] | substrate [+] | – | – | – | –
10 | C[C@H](N)c1ccc(N2CCC(c3nc(-c4cccc(C(F)(F)F)c4)c(-c4ccncc4)n3C)CC2)cc1.[O-][Cl+3]([O-])([O-])O | substrate [+] | substrate [+] | substrate [+] | – | – | substrate [+] | substrate [+]
11 | CC(=O)[C@H]1CC[C@H]2[C@@H]3CCC4=CC(=O)CC[C@]4(C)[C@H]3CC[C@]12C [PROGESTERONE] | is not a substrate [-] | is not a substrate [-] | substrate [+] | – | – | – | –
12 | CN1C(=O)C(NC(=O)c2cc3ccccc3[nH]2)N=C(c2ccccc2)c2ccccc21 (racemic) | is not a substrate [-] | is not a substrate [-] | is not a substrate [-] | – | – | – | –

From ChEMBL document CHEMBL2073937, “In vitro substrate identification studies for p-glycoprotein-mediated transport: species difference and predictability of in vivo results” (J Pharmacol Exp Ther, 2001)
